Assay results published in ChEMBL document CHEMBL5335866, “Structure-Based Optimization of Selective and Brain Penetrant CK1δ Inhibitors for the Treatment of Circadian Disruptions” (ACS Med Chem Lett, 2024).
Active and inactive are the calls of the source. The calls are words filed in the database; no cut-off is given here.

How the values were obtained:
[1] = Cmax in brain of C57BL/6 mouse at 30 mg/kg, sc measured after 30 mins by LC/MS-MS analysis; assay type: ADME, organism-based; design: time 30 min, dose 30 mg/kg, route sc
[2] = Cmax in plasma of C57BL/6 mouse at 30 mg/kg, sc measured for 6 hrs by LC/MS-MS analysis; assay type: ADME, organism-based; design: time 6 hrs, dose 30 mg/kg, route sc
[3] = Apparent permeability across apical to basal side in MDCK cells expressing MDR1 at 5 uM incubated for 60 mins by LC/MS/MS analysis; assay type: ADME, cell-based, Canis lupus familiaris, MDCK1; details: dog
[4] = Clearance in Sprague-Dawley rat at 1 mg/kg, iv measured for 24 hrs by LC-MS/MS analysis; assay type: ADME, organism-based; details: in vivo
[5] = Cmax in brain of C57BL/6 mouse at 30 mg/kg, sc measured for 6 hrs by LC/MS-MS analysis; assay type: ADME, organism-based; design: time 6 hrs, dose 30 mg/kg, route sc
[6] = Cmax in plasma of C57BL/6 mouse at 30 mg/kg, sc measured after 30 mins by LC/MS-MS analysis; assay type: ADME, organism-based; design: time 30 min, dose 30 mg/kg, route sc
[7] = Effect on circadian rhythms in C57BL/6 mouse assessed as phase delay in time at 30 mg/kg, sc qd for 10 days by wheel running assay; assay type: functional; details: time 10 day
[8] = target: Casein kinase I isoform alpha (Homo sapiens, UniProt P48729); test: Inhibition of CK1 alpha (unknown origin)
[9] = Cmax in Sprague-Dawley rat at 5 mg/kg, po measured for 24 hrs by LC-MS/MS analysis; assay type: ADME, organism-based; design: dose 5 mg/kg, time 24 hrs, route po; details: in vivo
[10] = Cmax in C57BL/6 mouse at 5 mg/kg, po measured for 6 hrs by LC/MS-MS analysis; assay type: ADME, organism-based; design: dose 5 mg/kg, time 6 hrs, route po; details: in vivo
Brain = test: Ex vivo receptor occupancy at CK1 delta in brain of C57BL/6 mouse at 30 mg/kg, sc measured for 6 hrs by autoradiography relative to control; assay type: functional
Cytochrome P450 2C8 = Cytochrome P450 2C8 (Homo sapiens, UniProt P10632); test: Inhibition of CYP2C8 in human liver microsomes incubated for 10 mins in presence of NADPH by LC-MS/MS analysis; assay type: ADME, Microsome
Cytochrome P450 3A4 = Cytochrome P450 3A4 (Homo sapiens, UniProt P08684); test: Inhibition of CYP3A4 in human liver microsomes using midazolam as substrate incubated for 5 mins in presence of NADPH by LC-MS/MS analysis; assay type: ADME, Microsome
[11] = AUC (infinity) in Sprague-Dawley rat at 5 mg/kg, po measured for 24 hrs by LC-MS/MS analysis; assay type: ADME, organism-based; design: time 24 hrs, dose 5 mg/kg, route po; details: in vivo
[12] = Unbound drug concentration in brain of C57BL/6 mouse at 30 mg/kg, sc measured for 6 hrs by LC/MS-MS analysis; assay type: ADME, organism-based; details: in vivo
[13] = Unbound Cmax in Sprague-Dawley rat at 5 mg/kg, po measured for 24 hrs by LC-MS/MS analysis; assay type: ADME, organism-based; details: in vivo
[14] = Intrinsic clearance in rat liver microsomes at 1 uM preincubated for 5 mins followed by NADPH addition measured for 60 mins by LC-MS/MS analysis; assay type: ADME, Microsome; details: time 65 min, read-out: CLH
[15] = Oral bioavailability in Sprague-Dawley rat at 5 mg/kg measured for 24 hrs by LC-MS/MS analysis; assay type: ADME, organism-based; details: in vivo
[16] = Ratio of unbound fraction in brain to plasma of C57BL/6 mouse at 30 mg/kg, sc measured for 6 hrs by LC/MS-MS analysis; assay type: ADME, organism-based; details: read-out: K(p,uu,brain)
[17] = Intrinsic clearance in mouse liver microsomes at 1 uM preincubated for 5 mins followed by NADPH addition measured for 60 mins by LC-MS/MS analysis; assay type: ADME, Microsome; details: time 65 min, read-out: CLH
Mus musculus [18] = test: Effect on circadian rhythms in C57BL/6 mouse assessed as phase shift at 30 mg/kg, sc qd measured after 4 to 10 days by wheel running assay; assay type: functional, organism-based; details: time 4-10 day
Cytochrome P450 2C19 = Cytochrome P450 2C19 (Homo sapiens, UniProt P33261); test: Inhibition of CYP2C19 in human liver microsomes incubated for 10 mins in presence of NADPH by LC-MS/MS analysis; assay type: ADME, Microsome
[19] = Intrinsic clearance in cynomolgus monkey liver microsomes at 1 uM preincubated for 5 mins followed by NADPH addition measured for 60 mins by LC-MS/MS analysis; assay type: ADME, Macaca fascicularis, Microsome; details: time 65 min, read-out: CLH
[20] = Oral bioavailability in C57BL/6 mouse at 5 mg/kg measured for 6 hrs by LC/MS-MS analysis; assay type: ADME, organism-based; details: in vivo
[21] = Half life in Sprague-Dawley rat at 5 mg/kg, po measured for 24 hrs by LC-MS/MS analysis; assay type: ADME, organism-based; details: in vivo
[22] = Unbound drug concentration in plasma of C57BL/6 mouse at 30 mg/kg, sc measured for 6 hrs by LC/MS-MS analysis; assay type: ADME, organism-based; details: in vivo
Cytochrome P450 2D6 = Cytochrome P450 2D6 (Homo sapiens, UniProt P10635); test: Inhibition of CYP2D6 in human liver microsomes incubated for 10 mins in presence of NADPH by LC-MS/MS analysis; assay type: ADME, Microsome
Cytochrome P450 1A2 = Cytochrome P450 1A2 (Homo sapiens, UniProt P05177); test: Inhibition of CYP1A2 in human liver microsomes incubated for 10 mins in presence of NADPH by LC-MS/MS analysis; assay type: ADME, Microsome
[23] = target: TRAF2 and NCK-interacting protein kinase (Homo sapiens, UniProt Q9UKE5); test: Inhibition of TNIK (unknown origin)
[24] = Volume of distribution at steady state in Sprague-Dawley rat at 1 mg/kg, iv measured for 24 hrs by LC-MS/MS analysis; assay type: ADME, organism-based; details: in vivo, read-out: Vdss
Mus musculus [25] = test: Effect on circadian rhythms in C57BL/6 mouse assessed as phase shift at 10 to 30 mg/kg, sc qd measured after 1 to 10 days by wheel running assay; assay type: functional, organism-based; details: dose 10-30 mg/kg, time 1-10 day, tested as the 2H-labelled form
[26] = target: Casein kinase I isoform epsilon (Homo sapiens, UniProt P49674); test: Inhibition of CK1 epsilon (unknown origin)
Cytochrome P450 2C9 = Cytochrome P450 2C9 (Homo sapiens, UniProt P11712); test: Inhibition of CYP2C9 in human liver microsomes incubated for 10 mins in presence of NADPH by LC-MS/MS analysis; assay type: ADME, Microsome
[27] = Oral bioavailability in C57BL/6 mouse at 30 mg/kg measured for 6 hrs by LC/MS-MS analysis; assay type: ADME, organism-based; details: in vivo
[28] = Intrinsic clearance in dog liver microsomes at 1 uM preincubated for 5 mins followed by NADPH addition measured for 60 mins by LC-MS/MS analysis; assay type: ADME, Canis lupus familiaris, Microsome; details: time 65 min, read-out: CLH
[29] = Cmax in brain of C57BL/6 mouse at 30 mg/kg, sc measured after 15 mins by LC/MS-MS analysis; assay type: ADME, organism-based; design: time 15 min, dose 30 mg/kg, route sc
[30] = Cmax in plasma of C57BL/6 mouse at 30 mg/kg, sc measured after 15 mins by LC/MS-MS analysis; assay type: ADME, organism-based; design: dose 30 mg/kg, time 15 min, route sc
[31] = Intrinsic clearance in human liver microsomes at 1 uM preincubated for 5 mins followed by NADPH addition measured for 60 mins by LC-MS/MS analysis; assay type: ADME, Microsome; details: time 65 min, read-out: CLH

Cytochrome P450 2C8, sequence (P10632 whole entry): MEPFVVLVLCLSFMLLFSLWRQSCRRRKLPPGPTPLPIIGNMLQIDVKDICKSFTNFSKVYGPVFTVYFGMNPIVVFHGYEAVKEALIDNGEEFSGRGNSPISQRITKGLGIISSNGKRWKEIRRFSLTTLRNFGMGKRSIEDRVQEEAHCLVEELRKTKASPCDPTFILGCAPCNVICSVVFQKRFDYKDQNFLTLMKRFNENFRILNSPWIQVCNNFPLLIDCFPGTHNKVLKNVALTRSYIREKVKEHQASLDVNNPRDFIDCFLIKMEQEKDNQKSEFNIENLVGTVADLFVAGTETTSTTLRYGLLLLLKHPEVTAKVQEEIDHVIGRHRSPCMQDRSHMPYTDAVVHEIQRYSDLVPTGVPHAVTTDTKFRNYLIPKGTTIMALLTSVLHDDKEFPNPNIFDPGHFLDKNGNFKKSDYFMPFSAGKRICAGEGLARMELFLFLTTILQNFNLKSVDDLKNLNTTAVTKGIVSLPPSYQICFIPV
Cytochrome P450 3A4, sequence (P08684 whole entry): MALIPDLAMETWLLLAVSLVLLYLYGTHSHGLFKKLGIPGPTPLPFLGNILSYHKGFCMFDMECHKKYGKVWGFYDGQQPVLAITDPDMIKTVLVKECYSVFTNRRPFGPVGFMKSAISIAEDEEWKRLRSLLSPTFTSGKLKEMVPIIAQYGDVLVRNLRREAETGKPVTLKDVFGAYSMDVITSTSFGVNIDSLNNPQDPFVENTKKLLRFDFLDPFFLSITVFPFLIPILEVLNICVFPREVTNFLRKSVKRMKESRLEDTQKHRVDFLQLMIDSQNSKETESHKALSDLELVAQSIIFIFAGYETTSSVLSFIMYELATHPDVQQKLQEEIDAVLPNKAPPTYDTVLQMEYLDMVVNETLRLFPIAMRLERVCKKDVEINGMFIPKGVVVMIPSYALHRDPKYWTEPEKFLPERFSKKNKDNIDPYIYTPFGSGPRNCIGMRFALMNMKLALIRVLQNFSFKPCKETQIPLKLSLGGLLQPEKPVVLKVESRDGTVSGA
Cytochrome P450 2C19, sequence (P33261 whole entry): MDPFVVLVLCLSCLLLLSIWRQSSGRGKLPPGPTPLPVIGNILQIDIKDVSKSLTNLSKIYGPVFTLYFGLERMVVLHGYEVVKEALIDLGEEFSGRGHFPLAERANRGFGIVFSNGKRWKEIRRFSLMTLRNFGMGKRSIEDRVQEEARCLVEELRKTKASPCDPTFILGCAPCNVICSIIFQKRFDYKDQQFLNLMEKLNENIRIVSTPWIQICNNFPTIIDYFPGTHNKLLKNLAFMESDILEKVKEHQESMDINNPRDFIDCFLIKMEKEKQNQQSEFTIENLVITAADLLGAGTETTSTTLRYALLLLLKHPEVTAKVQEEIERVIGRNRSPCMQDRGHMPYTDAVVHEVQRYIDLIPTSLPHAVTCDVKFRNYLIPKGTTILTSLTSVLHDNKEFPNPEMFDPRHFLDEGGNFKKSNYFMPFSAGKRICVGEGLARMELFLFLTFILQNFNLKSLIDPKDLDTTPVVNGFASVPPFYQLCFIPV
Cytochrome P450 1A2, sequence (P05177 whole entry): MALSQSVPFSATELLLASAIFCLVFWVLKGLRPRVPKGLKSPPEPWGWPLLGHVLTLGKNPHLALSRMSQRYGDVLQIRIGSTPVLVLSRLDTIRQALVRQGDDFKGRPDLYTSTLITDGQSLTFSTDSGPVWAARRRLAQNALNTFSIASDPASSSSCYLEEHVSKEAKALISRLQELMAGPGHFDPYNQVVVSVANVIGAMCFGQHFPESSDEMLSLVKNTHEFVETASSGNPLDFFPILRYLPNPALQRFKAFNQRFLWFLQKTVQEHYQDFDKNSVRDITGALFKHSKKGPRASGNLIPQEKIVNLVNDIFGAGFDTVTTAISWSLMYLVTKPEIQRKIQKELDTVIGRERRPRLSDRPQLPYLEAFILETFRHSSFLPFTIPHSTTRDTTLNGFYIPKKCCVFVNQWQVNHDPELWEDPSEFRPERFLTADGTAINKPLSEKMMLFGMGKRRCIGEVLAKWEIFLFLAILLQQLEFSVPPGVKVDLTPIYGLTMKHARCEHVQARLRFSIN
Casein kinase I isoform alpha, sequence (P48729 whole entry, canonical isoform): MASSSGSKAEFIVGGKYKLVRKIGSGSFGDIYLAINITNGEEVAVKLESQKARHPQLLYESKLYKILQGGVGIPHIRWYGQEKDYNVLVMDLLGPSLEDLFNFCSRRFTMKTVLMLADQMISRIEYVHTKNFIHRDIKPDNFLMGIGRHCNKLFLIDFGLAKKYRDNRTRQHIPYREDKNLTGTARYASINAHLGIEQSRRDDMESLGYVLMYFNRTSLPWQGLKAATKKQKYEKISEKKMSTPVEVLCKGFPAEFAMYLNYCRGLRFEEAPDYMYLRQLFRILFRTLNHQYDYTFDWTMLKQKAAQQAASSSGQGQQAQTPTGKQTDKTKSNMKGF
Cytochrome P450 2C9, sequence (P11712 whole entry): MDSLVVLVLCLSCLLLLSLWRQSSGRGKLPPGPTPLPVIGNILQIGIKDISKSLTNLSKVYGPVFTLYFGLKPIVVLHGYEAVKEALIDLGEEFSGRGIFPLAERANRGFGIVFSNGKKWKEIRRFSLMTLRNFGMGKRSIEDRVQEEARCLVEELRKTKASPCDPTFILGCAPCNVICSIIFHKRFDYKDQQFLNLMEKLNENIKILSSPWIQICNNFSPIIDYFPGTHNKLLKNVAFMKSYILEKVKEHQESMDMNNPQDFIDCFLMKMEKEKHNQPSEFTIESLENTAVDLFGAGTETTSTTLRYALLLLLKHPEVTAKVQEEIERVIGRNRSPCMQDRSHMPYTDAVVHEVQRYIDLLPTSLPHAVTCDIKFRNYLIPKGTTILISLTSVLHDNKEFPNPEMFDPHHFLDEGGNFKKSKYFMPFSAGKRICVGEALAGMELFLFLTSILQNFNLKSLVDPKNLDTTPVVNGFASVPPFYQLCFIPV
Cytochrome P450 2D6, sequence (P10635 whole entry): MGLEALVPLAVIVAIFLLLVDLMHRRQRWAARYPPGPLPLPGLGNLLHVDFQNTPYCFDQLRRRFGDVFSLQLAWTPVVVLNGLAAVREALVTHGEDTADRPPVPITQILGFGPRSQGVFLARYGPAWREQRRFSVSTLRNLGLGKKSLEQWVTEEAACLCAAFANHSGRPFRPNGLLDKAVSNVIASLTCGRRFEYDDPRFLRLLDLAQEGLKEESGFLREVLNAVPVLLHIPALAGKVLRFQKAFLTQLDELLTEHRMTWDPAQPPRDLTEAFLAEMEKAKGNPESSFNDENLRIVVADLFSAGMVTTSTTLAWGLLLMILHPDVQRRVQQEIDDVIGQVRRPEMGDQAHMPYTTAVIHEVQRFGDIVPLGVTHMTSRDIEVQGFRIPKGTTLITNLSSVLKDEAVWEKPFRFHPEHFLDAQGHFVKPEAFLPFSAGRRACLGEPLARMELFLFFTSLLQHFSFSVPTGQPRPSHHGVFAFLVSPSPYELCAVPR
Casein kinase I isoform epsilon, sequence (P49674 whole entry, canonical isoform): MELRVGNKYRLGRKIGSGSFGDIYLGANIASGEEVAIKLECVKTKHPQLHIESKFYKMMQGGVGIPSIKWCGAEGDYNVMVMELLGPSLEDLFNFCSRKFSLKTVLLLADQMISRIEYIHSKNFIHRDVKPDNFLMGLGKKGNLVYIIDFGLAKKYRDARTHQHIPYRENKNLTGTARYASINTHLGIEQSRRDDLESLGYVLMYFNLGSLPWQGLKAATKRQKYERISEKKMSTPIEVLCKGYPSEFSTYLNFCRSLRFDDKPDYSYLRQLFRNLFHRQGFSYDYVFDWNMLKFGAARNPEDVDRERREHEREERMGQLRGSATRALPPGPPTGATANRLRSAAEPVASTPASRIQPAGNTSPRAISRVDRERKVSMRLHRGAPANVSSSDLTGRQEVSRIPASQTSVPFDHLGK

CC1(C)Cn2nc(-c3ccc(F)cn3)c(-c3ccnc4[nH]ncc34)c2CO1
Cmax [1]: 2300 nM
Cmax [2]: 4110 ng/mL
Papp A→B at 1 h, 5 µM [3]: 7.4 ×10⁻⁶ cm/s
clearance [4]: 104 mL/min/kg
Cmax [5]: 847 ng/g
Cmax [6]: 11300 nM
Time [7]: 0.83 h
IC50 [8]: 0.79 µM
Cmax [9]: 400 nM
Cmax [10]: 700 nM
Occ (Brain): 56%
IC50 (Cytochrome P450 2C8): > 20 µM
IC50 (Cytochrome P450 3A4): > 20 µM
AUC(0-inf) [11]: 150 ng·h/mL
Drug uptake(free) [12]: 668 nM
fCmax [13]: 0.15 µM
microsomal CLint at 1 µM [14]: 17.2 µL/min/mg
bioavailability [15]: 19%
Kp uu at 6 h [16]: 0.23
microsomal CLint at 1 µM [17]: 22.7 µL/min/mg
Activity (Mus musculus [18]): Active
IC50 (Cytochrome P450 2C19): > 20 µM
microsomal CLint at 1 µM [19]: 12.3 µL/min/mg
bioavailability [20]: 4%
half-life [21]: 60 min
Cp(f) [22]: 2899 nM
IC50 (Cytochrome P450 2D6): > 20 µM
IC50 (Cytochrome P450 1A2): > 20 µM
IC50 [23]: 3.2 µM
Vd [24]: 1.2 L/kg
Activity (Mus musculus [25]): Active
IC50 [26]: 0.093 µM
IC50 (Cytochrome P450 2C9): > 20 µM
bioavailability [27]: 53%
microsomal CLint at 1 µM [28]: < 7.7 µL/min/mg

[2H]C([2H])([2H])C1(C([2H])([2H])[2H])Cn2nc(-c3ccc(F)cn3)c(-c3ccnc4[nH]ncc34)c2CO1
Cmax [2]: 8850 ng/mL
Papp A→B at 1 h, 5 µM [3]: 4.8 ×10⁻⁶ cm/s
clearance [4]: 44 mL/min/kg
Cmax [5]: 1350 ng/g
Cmax [29]: 3700 nM
Time [7]: 1.25 h
IC50 [8]: 0.41 µM
Cmax [9]: 3000 nM
Occ (Brain): 60%
Cmax [30]: 23900 nM
IC50 (Cytochrome P450 2C8): > 20 µM
IC50 (Cytochrome P450 3A4): > 20 µM
AUC(0-inf) [11]: 1940 ng·h/mL
Drug uptake(free) [12]: 789 nM
fCmax [13]: 1.1 µM
microsomal CLint at 1 µM [14]: 8.5 µL/min/mg
bioavailability [15]: 85%
Kp uu at 6 h [16]: 0.13
microsomal CLint at 1 µM [17]: < 7.7 µL/min/mg
IC50 (Cytochrome P450 2C19): > 20 µM
microsomal CLint at 1 µM [19]: < 7.7 µL/min/mg
half-life [21]: 48 min
Cp(f) [22]: 6117 nM
IC50 (Cytochrome P450 2D6): > 20 µM
IC50 (Cytochrome P450 1A2): > 20 µM
microsomal CLint at 1 µM [31]: < 7.7 µL/min/mg
Vd [24]: 1 L/kg
IC50 [26]: 0.11 µM
IC50 (Cytochrome P450 2C9): > 20 µM
microsomal CLint at 1 µM [28]: < 7.7 µL/min/mg
